From patent US20250230193A1, “CYCLIC COMPOUND HAVING SELECTIVE KRAS INHIBITORY EFFECT ON HRAS AND NRAS” (CHUGAI SEIYAKU KABUSHIKI KAISHA, priority 2022, published 2025)
Where a SMILES comes first, the peptide text is derived from it. Bridges are numbered along the chain shown (N, C = ends). [ ]: non-standard residue; d: D form. The star is where a group is joined. hPhe(3-Cl-4-CF3) = N[C@@H](CCc1ccc(C(F)(F)F)c(Cl)c1)C(=O)O; NPrPhe(4-CF3) = CCCN[C@@H](Cc1ccc(C(F)(F)F)cc1)C(=O)O; Pip(4,4-F2) = O=C(O)[C@@H]1CC(F)(F)CCN1; NMeGly(cPent) = CN[C@H](C(=O)O)C1CCCC1; NMeD = CN[C@@H](CC(=O)O)C(=O)O; NMeL = CN[C@@H](CC(C)C)C(=O)O; Morpholide = C1CN(*)CCO1; NMeA = CN[C@@H](C)C(=O)O; Ac5c = NC1(C(=O)O)CCCC1; Aze = O=C(O)[C@@H]1CCN1; Sar = CNCC(=O)O

Assays:
[1] = target: GDP-bound HRAS wild-type protein (Homo sapiens, UniProt P01112); test: Binding to HRAS by surface plasmon resonance (SPR), Single Cycle Kinetics; settings: for HRAS/KRAS (ratio of KD value with respect to HRAS to KD value with respect to KRAS): GDP-bound HRAS wild-type vs GDP-bound KRAS wild-type
Sequence of GDP-bound HRAS wild-type protein (P01112 whole entry): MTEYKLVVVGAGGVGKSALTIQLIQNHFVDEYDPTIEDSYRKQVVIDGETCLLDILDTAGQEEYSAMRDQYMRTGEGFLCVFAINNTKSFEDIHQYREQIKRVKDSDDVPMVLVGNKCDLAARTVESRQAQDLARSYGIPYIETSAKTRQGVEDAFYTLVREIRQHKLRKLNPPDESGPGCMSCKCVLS

[2] = target: GDP-bound NRAS wild-type protein (Homo sapiens, UniProt P01111); test: Binding to NRAS by surface plasmon resonance (SPR), Single Cycle Kinetics; settings: for NRAS/KRAS (ratio of KD value with respect to NRAS to KD value with respect to KRAS): GDP-bound NRAS wild-type vs GDP-bound KRAS wild-type
Sequence of GDP-bound NRAS wild-type protein (P01111 whole entry): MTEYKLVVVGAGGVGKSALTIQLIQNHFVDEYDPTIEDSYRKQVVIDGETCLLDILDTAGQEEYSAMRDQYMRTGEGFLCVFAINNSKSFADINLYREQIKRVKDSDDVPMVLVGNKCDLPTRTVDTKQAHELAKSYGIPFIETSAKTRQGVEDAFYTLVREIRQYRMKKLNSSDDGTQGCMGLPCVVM

[3] = KD ratio HRAS/KRAS, class symbols
[4] = KD ratio NRAS/KRAS, class symbols

| Compound | HRAS/KRAS (ratio of KD value with respect to HRAS to KD value with respect to KRAS) ([1]; SPR) | NRAS/KRAS (ratio of KD value with respect to NRAS to KD value with respect to KRAS) ([2]; SPR) | HRAS/KRAS (ratio of KD value with respect to GDP-bound HRAS wild-type protein to KD value with respect to KRAS) [1, 3] | NRAS/KRAS (ratio of KD value with respect to GDP-bound NRAS wild-type protein to KD value with respect to KRAS) [2, 4] | further results |
| --- | --- | --- | --- | --- | --- |
| CCO[C@@H]1C[C@H]2C(=O)NC3(CCC3)C(=O)N(C)[C@@H](C3CCCC3)C(=O)N(C)[C@H](C(=O)N(C)C)CC(=O)N(C)[C@@H](CC)C(=O)N[C@@H]([C@@H](C)CC)C(=O)N3CC[C@@H]3C(=O)N(C)[C@H]3C/C=C\CCN(C3=O)[C@@H](Cc3ccc(C(F)(F)F)cc3)C(=O)N(C)CC(=O)N[C@@H](CCc3cc(F)c(C(F)(F)F)c(F)c3)C(=O)N2C1 [PP1064] | A (a compound having 10 or more and less than 20 is denoted as A) | A (a compound having 10 or more and less than 20 is denoted as A) | – | – | – |
| CCO[C@@H]1C[C@H]2C(=O)NC3(CCC3)C(=O)N(C)[C@@H](C3CCCC3)C(=O)N(C)[C@H](C(=O)N3CCOCC3)CC(=O)N(C)[C@@H](CC(F)F)C(=O)N[C@@H]([C@@H](C)CC)C(=O)N(C)CC(=O)N(C)[C@H]3CCCCCN(C3=O)[C@@H](Cc3ccc(C(F)(F)F)cc3)C(=O)N(C)CC(=O)N[C@@H](CCc3cc(F)c(C(F)(F)F)c(F)c3)C(=O)N2C1 [PP0854] | B (a compound having 3 or more and less than 10 is denoted as B) | B (a compound having 3 or more and less than 10 is denoted as B) | – | – | – |
| CCO[C@@H]1C[C@H]2C(=O)NC3(CC(C)(C)C3)C(=O)N(C)[C@@H](C(CC)CC)C(=O)N(C)[C@H](C(=O)N(C)C)CC(=O)N(C)[C@@H](COC)C(=O)N[C@@H]([C@@H](C)CC)C(=O)N(C3CC3)CC(=O)N(C)[C@H]3C/C=C\CCN(C3=O)[C@@H](CC3CCC(F)(F)CC3)C(=O)N(C)CC(=O)N[C@@H](CCc3ccc(Cl)c(Cl)c3)C(=O)N2C1 [PP2569] | – | – | A (a compound having 10 or more and less than 20 is denoted as A) | AA (a compound having 20 or more is denoted as AA) | – |
| CCCN1C(=O)[C@@H]2CCN2C(=O)[C@H](C)N(C)C(=O)[C@H]([C@@H](C)CC)NC(=O)[C@H](CC(C)C)N(C)C(=O)C[C@@H](C(=O)N2CCOCC2)N(C)C(=O)[C@H](C2CCCC2)N(C)C(=O)C2(CCCC2)NC(=O)[C@@H]2CC(F)(F)CCN2C(=O)[C@H](CCc2ccc(C(F)(F)F)c(Cl)c2)NC(=O)CN(C)C(=O)[C@@H]1Cc1ccc(C(F)(F)F)cc1 [PP0285] ([NMeL]I[NMeA][Aze][NPrPhe(4-CF3)][Sar][hPhe(3-Cl-4-CF3)][Pip(4,4-F2)][Ac5c][NMeGly(cPent)][NMeD]-Morpholide; lactam N-11) | – | – | – | – | HRAS/KRAS (ratio of KD for GDP-bound HRAS wild-type to KD for KRAS) ([1]; KD ratio HRAS/KRAS, SPR): B (a compound having 3 or more and less than 10 is denoted as B); NRAS/KRAS (ratio of KD for GDP-bound NRAS wild-type to KD for KRAS) ([2]; KD ratio NRAS/KRAS, SPR): C (A compound having a KD ratio of 0.1 or more and less than 3 is denoted as C) |
| CCOC[C@H]1C(=O)N[C@@H]([C@@H](C)CC)C(=O)N(C)CC(=O)N(C)[C@H]2C/C=C\CCN(C2=O)[C@@H](Cc2ccc(C(F)(F)F)cc2)C(=O)N(C)CC(=O)N[C@@H](CCc2ccc(C(F)(F)F)c(OC)c2)C(=O)N2C[C@H](OCC)C[C@H]2C(=O)NC2(CC(C)(C)C2)C(=O)N(C)[C@@H](CC2CCC2)C(=O)N(C)[C@H](C(=O)N(C)C)CC(=O)N1C [PP2765] | – | – | A (a compound having 10 or more and less than 20 is denoted as A) | A (a compound having 10 or more and less than 20 is denoted as A) | – |
| CCO[C@@H]1C[C@H]2C(=O)NC3(CCCC3)C(=O)N(C)[C@@H](C3CCCC3)C(=O)N(C)[C@H](C(=O)N3CCOCC3)CC(=O)N(C)[C@@H](CC(C)C)C(=O)N[C@@H]([C@@H](C)CC)C(=O)N(C)CC(=O)N(C)[C@H]3CCCCCN(C3=O)[C@@H](Cc3ccc(C(F)(F)F)cc3)C(=O)N(C)CC(=O)N[C@@H](CCc3cc(F)c(C(F)(F)F)c(F)c3)C(=O)N2C1 [PP0492] | – | – | – | – | HRAS/KRAS (ratio of KD value with respect to GDP-bound HRAS wild-type protein to KD value with respect to KRAS) ([1]; KD ratio HRAS/KRAS, SPR): B (a compound having 3 or more and less than 10 is denoted as B); NRAS/KRAS (ratio of KD value with respect to GDP-bound NRAS wild-type protein to KD value with respect to KRAS) ([2]; KD ratio NRAS/KRAS, SPR): B (a compound having 3 or more and less than 10 is denoted as B) |
